Reference: patent publication US7910579B2, “Benzoxazole derivatives” (Tohoku University, priority 2006, dated 2011)
Read-outs that look alike come from different tables or passages of the source.

What was measured:
Amyloid β protein 1-40 = molecular target: T1, Amyloid β protein 1-40 (Homo sapiens, UniProt P05067); assay: Fluorescence Congo Red Method; assay type: binding; details: 1 h, compound 10 μM, amyloid β protein 5 μM
T1 construct: Amyloid β protein 1-40 (bought from Peptide Laboratory); purchased Peptide Laboratory

Acute Toxicity Test = assay type: in vivo; details: Crj:CD1 male mice, tail vein, observed for 7 days
[1] = molecular target: T2, amyloid β protein in the brain section of an Alzheimer disease patient (Homo sapiens, UniProt P05067); assay: Staining test on a brain section of an Alzheimer disease patient: amyloid β protein; assay type: binding; details: 100 μM solution in 50% ethanol, 10 minutes, paraffin brain section
T2 construct: from tissue; host or cells: paraffin-embedded temporal lobe and hippocampus of Alzheimer disease patients
Method in brief: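 Deparaffinized 6 or 8 μm temporal lobe/hippocampus sections from Alzheimer and normal senile brains, autofluorescence quenched with KMnO4 then K2S2O5/oxalic acid, stained 10 min with 100 μM compound in 50% ethanol and imaged by fluorescence microscopy. Amyloid β immunostaining with 6F/3D antibody and ABC/DAB detection used for comparison.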

[2] = molecular target: T3, Tg mouse intracerebral amyloid plaque (Homo sapiens, UniProt P05067); assay: Investigation of transgenic (Tg) mice with amyloid deposition in their brain (fluorescence microscopy of brain sections after intravenous administration); assay type: in vivo; details: Tg2576 mouse, 4 mg/kg intravenous; for Passage through the blood-brain barrier and binding to Tg mouse intracerebral amyloid plaque: 1 hour after administration
T3 construct: from tissue; host or cells: brain of Tg mice (Tg2576 or APPswe2576/Tau JNPL3) after intravenous dosing

[3] = Congo red 0.1 μM, read-out: Binding Percentage of Compound in the presence of 0.1 μM CR
[4] = Congo red 0.3 μM, read-out: Binding Percentage of Compound in the presence of 0.3 μM CR
[5] = Congo red 1 μM, read-out: Binding Percentage of Compound in the presence of 1 μM CR

T1 sequence (P05067 672-711): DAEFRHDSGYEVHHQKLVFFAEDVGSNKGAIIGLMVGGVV
T3 sequence (P05067 672-713 limits assumed): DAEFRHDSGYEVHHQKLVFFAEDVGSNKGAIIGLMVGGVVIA
T2 sequence (P05067 672-713 limits assumed): as above

SMILES	activity at 10 µM (Amyloid β protein 1-40; [3]) [%]	activity at 10 µM (Amyloid β protein 1-40; [4]) [%]	activity at 10 µM (Amyloid β protein 1-40; [5]) [%]	Maximum Permissible Dose (mg/kg, intravenous administration) (Acute Toxicity Test)	Binding to (staining of) amyloid β protein in the brain section of an Alzheimer disease patient [1]	Passage through the blood-brain barrier and binding to Tg mouse intracerebral amyloid plaque [2]	Correspondence of the binding site to the anti-Aβ antibody-stained site of the same section ([2]; antibody 4G8)
CN(C)c1ncc(/C=C/c2nc3ccc(OC(CO)CF)cc3o2)s1 (stereo not shown) [THK-763, (E)-6-[(1-fluoromethyl-2-hydroxy)ethoxy]-2-[2-[2-dimethylamino-thiazol-5-yl]ethenyl]benzoxazole]	54.7	22.9	7.5	≧10 mg/kg	white space arrow indicates amyloid β protein	–	–
FCCOc1ccc2nc(/C=C/c3cnc(N4CCOCC4)s3)oc2c1 [THK-525, 6-(2-fluoro-ethoxy)-2-[2-(2-morpholin-4-yl-thiazol-5-yl)-vinyl]-benzoxazole]	61.4	24.1	-6.4	≧10 mg/kg	bound to the amyloid β protein	passed through the blood-brain barrier, and bound to the Tg mouse intracerebral amyloid plaque	–
OCC(CF)Oc1ccc2nc(/C=C/c3cnc(N4CCOCC4)s3)oc2c1 (stereo not shown) [THK-702, (E)-2-[2-(2-morpholinothiazol-5-yl)ethenyl]-6-[(1-fluoromethyl-2-hydroxy)ethoxy]-benzoxazole]	74.9	37.3	0.8	≧10 mg/kg	white space arrow indicates amyloid β protein	passed through the blood-brain barrier, and bound to the amyloid plaque of the Tg mouse	completely corresponded to the anti-Aβ antibody-stained site
CNc1ncc(/C=C/c2nc3ccc(OC(CO)CF)cc3o2)s1 (stereo not shown) [THK-761, (E)-6-[(1-fluoromethyl-2-hydroxy)ethoxy]-2-[2-[2-methylaminothiazol-5-yl]ethenyl]-benzoxazole]	55.2	21.6	7	≧10 mg/kg	white space arrow indicates amyloid β protein	–	–
OCC(CF)Oc1ccc2nc(/C=C/c3cnc(N4CCCC4)s3)oc2c1 (stereo not shown) [THK-752, (E)-6-[(1-fluoromethyl-2-hydroxy)ethoxy]-2-[2-[2-(pyrrolidin-1-yl)-thiazol-5-yl]ethenyl]benzoxazole]	50.4	20.6	11.3	≧10 mg/kg	white space arrow indicates amyloid β protein	–	–
